Data as given in ChEMBL document CHEMBL3091320, “6-(4-Pyridyl)pyrimidin-4(3H)-ones as CNS penetrant glycogen synthase kinase-3β inhibitors” (Bioorg Med Chem Lett, 2013).

Assays:
[1] = biological target: Glycogen synthase kinase-3 beta (Homo sapiens, UniProt P49841); assay: Inhibition of human recombinant GSK3beta using prephosphorylated GS1 peptide as substrate after 1 hr by liquid scintillation spectrometry
[2] = Clearance in rat microsomes; assay type: ADME, Microsome
[3] = Inhibition of CYP1A (unknown origin); assay type: ADME, Homo sapiens
[4] = test system: Rattus norvegicus; assay: Reduction in tau protein phosphorylation in Wistar rat prefrontal cortex at 100 mg/kg, ip after 15 mins to 2 hrs by western blot analysis relative to vehicle-treated control; assay type: functional; parameters: scale not given: the % may be the effect or the level left; details: route intraperitoneal
[5] = Permeability co-efficient in Wistar rat brain at 30 mg/kg, ip measured at 0.25 hrs; assay type: ADME, organism-based; parameters: dose 30 mg/kg, route intraperitoneal
[6] = test system: Brain; assay: Drug uptake in Wistar rat brain at 30 mg/kg, ip measured at 0.25 hrs; assay type: ADME, organism-based; parameters: dose 30 mg/kg, route intraperitoneal; details: in vivo

Glycogen synthase kinase-3 beta, sequence (P49841 whole entry): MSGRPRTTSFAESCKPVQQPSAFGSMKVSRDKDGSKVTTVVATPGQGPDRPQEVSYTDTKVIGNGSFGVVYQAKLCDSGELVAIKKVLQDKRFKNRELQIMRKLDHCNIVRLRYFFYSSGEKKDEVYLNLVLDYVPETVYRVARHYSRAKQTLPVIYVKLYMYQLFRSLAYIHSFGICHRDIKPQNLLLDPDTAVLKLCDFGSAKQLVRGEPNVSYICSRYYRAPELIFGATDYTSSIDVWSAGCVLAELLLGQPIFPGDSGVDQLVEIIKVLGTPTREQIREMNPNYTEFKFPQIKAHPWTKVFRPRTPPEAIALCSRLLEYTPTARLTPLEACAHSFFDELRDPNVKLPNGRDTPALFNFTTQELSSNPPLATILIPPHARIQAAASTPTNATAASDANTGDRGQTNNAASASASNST

Row | IC50 [1] | SMILES | other results
1 | 150 nM | Cn1c(N(CCCCCN)CCc2ccccc2)nc(-c2ccncc2)cc1=O | 
2 | 1900 nM | CCn1c(CCCc2ccccc2)nc(-c2ccncc2)cc1=O | 
3 | 25 nM | Cn1c(NCC(=O)c2cccc(F)c2)nc(-c2ccncc2)cc1=O | CL [2]: 0.207 mL/min/mg; IC50 [3]: 4.2 µM
4 | 39 nM | Cn1c(NCCC2CCCCC2)nc(-c2ccncc2)cc1=O | 
5 | 52 nM | Cn1c(NCC(=O)c2ccc(F)cc2)nc(-c2ccncc2)cc1=O | CL [2]: 0.166 mL/min/mg; IC50 [3]: 10.9 µM
6 | 2100 nM | CC(C)c1nc(-c2ccncc2)cc(=O)[nH]1 | 
7 | 1300 nM | CCCCc1nc(-c2ccncc2)cc(=O)[nH]1 | 
8 | 1300 nM | O=c1cc(-c2ccncc2)nc(Cc2ccccc2)[nH]1 | 
9 | 9800 nM | CCCn1c(CCCc2ccccc2)nc(-c2ccncc2)cc1=O | 
10 | 2200 nM | O=c1cc(-c2ccncc2)nc(CCCc2ccccc2)n1Cc1ccccc1 | 
11 | 13 nM | Cn1c(NCC(=O)c2cccc(C#N)c2)nc(-c2ccncc2)cc1=O | CL [2]: 0.133 mL/min/mg; IC50 [3]: > 53.3 µM
12 | 8900 nM | O=c1cc(-c2ccncc2)nc(CCc2ccccc2)[nH]1 | 
13 | 13 nM | Cn1c(NCC(=O)c2cccc(Cl)c2)nc(-c2ccncc2)cc1=O | CL [2]: 0.262 mL/min/mg; IC50 [3]: 0.67 µM
14 | 70 nM | Cn1c(NCCc2ccccc2)nc(-c2ccncc2)cc1=O | 
15 | 130 nM | Cn1c(N(CCCCN)CCc2ccccc2)nc(-c2ccncc2)cc1=O | 
16 | 200 nM | Cn1c(OCCc2ccccc2)nc(-c2ccncc2)cc1=O | 
17 | 27 nM | Cn1c(NCC(=O)c2ccccc2F)nc(-c2ccncc2)cc1=O | CL [2]: 0.158 mL/min/mg; IC50 [3]: 3.8 µM
18 | 500 nM | O=c1cc(-c2ccncc2)nc(CCCc2ccccc2)[nH]1 | 
19 | 23 nM | Cn1c(NCC(O)c2ccccc2)nc(-c2ccncc2)cc1=O (configuration not stated) | 
20 | 38 nM | Cc1cccc(C(=O)CNc2nc(-c3ccncc3)cc(=O)n2C)c1 | CL [2]: 0.262 mL/min/mg; IC50 [3]: 2.2 µM
21 | 90 nM | Cn1c(CCCc2ccccc2)nc(-c2ccncc2)cc1=O | 
22 | 1800 nM | O=c1cc(-c2ccncc2)nc(-c2ccccc2)[nH]1 | 
23 | 3000 nM | Cc1nc(-c2ccncc2)cc(=O)[nH]1 | 
24 | 8.9 nM | Cn1c(NCC(=O)c2ccccc2)nc(-c2ccncc2)cc1=O | Activity [4]: 24%; Kp at 0.25 h [5]: 1.15; Drug uptake [6]: 11.2 uM/ml; CL [2]: 0.172 mL/min/mg; IC50 [3]: 5.7 µM
25 | 2400 nM | CC(C)Cc1nc(-c2ccncc2)cc(=O)[nH]1 | 
